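A five-concentration, 48-hour dose response in 96-well plates underlies each endpoint, interpolated linearly between surrounding concentrations. GI50 = concentration required for 50% inhibition of growth. TGI marks complete inhibition of growth.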
Assays:
Experiment in all cases: inhibition of tumour cell growth, NCI panel, 48 h
[1] = system: OVCAR-8 ovarian
[2] = system: CAKI-1 renal
[3] = system: OVCAR-4 ovarian
[4] = system: NCI-H522 lung
[5] = system: ACHN renal
[6] = system: NCI-H460 lung
[7] = system: SK-OV-3 ovarian
[8] = system: MCF7 breast
[9] = system: T-47D breast
[10] = system: SK-MEL-2 melanoma
[11] = system: M14 melanoma
[12] = system: A549 NSCLC
[13] = system: HCC-2998 colon
[14] = system: MDA-MB-435
[15] = system: DU-145 prostate
[16] = system: MOLT-4 leukemia
[17] = system: HCT-116 colon
[18] = system: U251 CNS
[19] = system: K-562 leukemia
[20] = system: OVCAR-3 ovarian
[21] = system: A498 renal
[22] = system: NCI-H226 lung
[23] = system: HCT-15 colon
[24] = system: MDA-MB-468 breast
[25] = system: SF-295 CNS
[26] = system: UACC-257 melanoma
[27] = system: SF-268 CNS
[28] = system: SN12C renal
[29] = system: UACC-62 melanoma
[30] = system: OVCAR-5 ovarian
[31] = system: SR leukemia
[32] = system: SNB-19 CNS
[33] = system: TK-10 renal
[34] = system: CCRF-CEM leukemia
[35] = system: SK-MEL-5 melanoma
[36] = system: PC-3 prostate
[37] = system: EKVX NSCLC
[38] = system: HOP-92 NSCLC
[39] = system: RPMI-8226 leukemia
[40] = system: NCI-H23 lung
[41] = system: IGROV1 ovarian
[42] = system: HS 578T breast
[43] = system: HOP-62 NSCLC
[44] = system: 786-0 renal
[45] = system: COLO 205 colon
[46] = system: NCI/ADR-RES ovarian
[47] = system: SW-620 colon
[48] = system: HT29 colon
[49] = system: SNB-75 CNS
[50] = system: SK-MEL-28 melanoma
[51] = system: BT-549 breast
[52] = system: HL-60(TB) leukemia
[53] = system: MDA-MB-231 breast
[54] = system: UO-31 renal
[55] = system: KM12 colon
[56] = system: SF-539 CNS
[57] = system: LOX IMVI melanoma
[58] = system: MALME-3M melanoma
[59] = system: RXF 393 renal

Cc1cc2nc3c4ccccc4n(CC4=NCCN4)c3nc2cc1C
GI50 [1]: 2.53 µM | TGI [1]: 19.3 µM | GI50 [2]: 1.38 µM | TGI [2]: 11.7 µM | GI50 [3]: 5.76 µM | TGI [3]: 20.8 µM | GI50 [4]: 1.86 µM | TGI [4]: 15.1 µM | GI50 [5]: 1.74 µM | TGI [5]: 5.3 µM | GI50 [6]: 634 nM | TGI [6]: 1.93 µM | GI50 [7]: 2.43 µM | TGI [7]: 9.95 µM | GI50 [8]: 747 nM | TGI [8]: 12.5 µM | GI50 [9]: 3070 nM | TGI [9]: 15.5 µM | GI50 [10]: 15.9 µM | TGI [10]: 30.5 µM | GI50 [11]: 3100 nM | TGI [11]: 14.1 µM | GI50 [12]: 1.28 µM | TGI [12]: 16.6 µM | GI50 [13]: 2690 nM | TGI [13]: 15.7 µM | GI50 [14]: 3.67 µM | TGI [14]: 14.3 µM | GI50 [15]: 3.08 µM | TGI [15]: 14.4 µM | GI50 [16]: 1170 nM | TGI [16]: 6.54 µM | GI50 [17]: 1500 nM | TGI [17]: 6.19 µM | GI50 [18]: 1250 nM | TGI [18]: 4.21 µM | GI50 [19]: 1780 nM | TGI [19]: > 100 µM | GI50 [20]: 5.89 µM | TGI [20]: 22.6 µM | GI50 [21]: 6.15 µM | TGI [21]: 20.9 µM | GI50 [22]: 1.44 µM | TGI [22]: 5 µM | GI50 [23]: 3440 nM | TGI [23]: 15.5 µM | GI50 [24]: 2060 nM | TGI [24]: 7.09 µM | GI50 [25]: 1120 nM | TGI [25]: 10.7 µM | GI50 [26]: 10.6 µM | TGI [26]: 25.3 µM | GI50 [27]: 4.81 µM | TGI [27]: 24 µM | GI50 [28]: 1.59 µM | TGI [28]: 12.2 µM | GI50 [29]: 1.91 µM | TGI [29]: 11.8 µM | GI50 [30]: 2.62 µM | TGI [30]: 10.6 µM | GI50 [31]: 523 nM | TGI [31]: 9.37 µM | GI50 [32]: 3.21 µM | TGI [32]: 15.9 µM | GI50 [33]: 6.35 µM | TGI [33]: 20.7 µM | GI50 [34]: 2370 nM | TGI [34]: 42.2 µM | GI50 [35]: 6.62 µM | TGI [35]: 19.2 µM | GI50 [36]: 1750 nM | TGI [36]: > 100 µM | GI50 [37]: 10.3 µM | TGI [37]: 22.5 µM | GI50 [38]: 2840 nM | TGI [38]: 17.5 µM | GI50 [39]: 2550 nM | TGI [39]: 36 µM | GI50 [40]: 2.64 µM | TGI [40]: 13.1 µM | GI50 [41]: 1.99 µM | TGI [41]: 15.4 µM | GI50 [42]: 11.2 µM | TGI [42]: 29.7 µM | GI50 [43]: 2.34 µM | TGI [43]: 11.8 µM | GI50 [44]: 3480 nM | TGI [44]: 13.3 µM | GI50 [45]: 3110 nM | TGI [45]: 20.2 µM | GI50 [46]: 3.5 µM | TGI [46]: 17.8 µM | GI50 [47]: 997 nM | TGI [47]: 11.9 µM | GI50 [48]: 1520 nM | TGI [48]: 3.6 µM | GI50 [49]: 1.49 µM | TGI [49]: 10.7 µM | GI50 [50]: 7.93 µM | TGI [50]: 20.6 µM | GI50 [51]: 6.52 µM | TGI [51]: 22.7 µM | GI50 [52]: 3060 nM | TGI [52]: 14.4 µM | GI50 [53]: 2010 nM | TGI [53]: 5.72 µM | GI50 [54]: 0.605 µM | TGI [54]: 6.49 µM | GI50 [55]: 5.51 µM | TGI [55]: 22.6 µM | GI50 [56]: 1590 nM | TGI [56]: 3.06 µM | GI50 [57]: 1190 nM | TGI [57]: 2470 nM | GI50 [58]: 1.4 µM | TGI [58]: 2.85 µM

CCC(C)(C)c1ccc(OCCCCCCN2CCN(c3ccncc3)CC2)cc1
GI50 [1]: 10.2 µM | TGI [1]: 30.1 µM | GI50 [2]: 4.97 µM | TGI [2]: 18.6 µM | GI50 [3]: 6.33 µM | TGI [3]: 21 µM | GI50 [4]: 11.8 µM | TGI [4]: 26.5 µM | GI50 [5]: 6.33 µM | TGI [5]: 19.5 µM | GI50 [6]: 2080 nM | TGI [6]: 4.77 µM | GI50 [7]: 14.4 µM | TGI [7]: 29.8 µM | GI50 [8]: 1730 nM | TGI [8]: 3.95 µM | GI50 [9]: 2630 nM | TGI [9]: 8.12 µM | GI50 [11]: 1580 nM | TGI [11]: 3.39 µM | GI50 [12]: 10.6 µM | TGI [12]: 26.6 µM | GI50 [13]: 1870 nM | TGI [13]: 3.5 µM | GI50 [14]: 2.5 µM | TGI [14]: 8.34 µM | GI50 [15]: 5.27 µM | TGI [15]: 17.6 µM | GI50 [16]: 3140 nM | TGI [16]: 10.1 µM | GI50 [17]: 1600 nM | TGI [17]: 3.85 µM | GI50 [18]: 3060 nM | TGI [18]: 11.8 µM | GI50 [19]: 1520 nM | TGI [19]: 6.8 µM | GI50 [20]: 3.86 µM | TGI [20]: 16.2 µM | GI50 [21]: 17.9 µM | TGI [21]: 34.6 µM | GI50 [22]: 10.6 µM | TGI [22]: 23.7 µM | GI50 [23]: 1750 nM | TGI [23]: 3.88 µM | GI50 [24]: 1760 nM | TGI [24]: 3.65 µM | GI50 [25]: 1900 nM | TGI [25]: 3.74 µM | GI50 [26]: 10.7 µM | TGI [26]: 23.8 µM | GI50 [27]: 11.8 µM | TGI [27]: 27.9 µM | GI50 [28]: 10.2 µM | TGI [28]: 22.4 µM | GI50 [29]: 11.8 µM | TGI [29]: 24.9 µM | GI50 [30]: 13.4 µM | TGI [30]: 26.2 µM | GI50 [31]: 2130 nM | TGI [31]: 9.38 µM | GI50 [32]: 8.19 µM | TGI [32]: 22.2 µM | GI50 [33]: 14.6 µM | TGI [33]: 28.7 µM | GI50 [34]: 2020 nM | TGI [34]: 10.3 µM | GI50 [35]: 1.79 µM | TGI [35]: 3.58 µM | GI50 [36]: 3630 nM | TGI [36]: 16.2 µM | GI50 [37]: 4.14 µM | TGI [37]: 16.5 µM | GI50 [38]: 2170 nM | TGI [38]: 15.4 µM | GI50 [39]: 2060 nM | TGI [39]: 4.98 µM | GI50 [40]: 3.65 µM | TGI [40]: 14 µM | GI50 [41]: 10.8 µM | TGI [41]: 24.4 µM | GI50 [42]: 7.73 µM | TGI [42]: 26.9 µM | GI50 [43]: 6.77 µM | TGI [43]: 23.8 µM | GI50 [44]: 1670 nM | TGI [44]: 3.15 µM | GI50 [45]: 1660 nM | TGI [45]: 3.33 µM | GI50 [47]: 1660 nM | TGI [47]: 3.69 µM | GI50 [48]: 2490 nM | TGI [48]: 8.86 µM | GI50 [49]: 8.03 µM | TGI [49]: 22.4 µM | GI50 [50]: 3.71 µM | TGI [50]: 13.3 µM | GI50 [51]: 3.07 µM | TGI [51]: 12.2 µM | GI50 [52]: 1680 nM | TGI [52]: 4.06 µM | GI50 [53]: 3160 nM | TGI [53]: 12.2 µM | GI50 [54]: 10 µM | TGI [54]: 22.1 µM | GI50 [55]: 4.17 µM | TGI [55]: 15.9 µM | GI50 [56]: 1840 nM | TGI [56]: 3.91 µM | GI50 [57]: 1810 nM | TGI [57]: 3400 nM | GI50 [59]: 1890 nM | TGI [59]: 8.42 µM | GI50 [58]: 5.26 µM | TGI [58]: 17.3 µM

— PubChem BioAssay (NCI)
